Measured values as given in US10123993B2, “Cyclic ureas as inhibitors of rock” (BRISTOL-MYERS SQUIBB COMPANY, priority 2015, dated 2018).
Where a name gives a salt, the structure may show the parent alone.

target: ROCK2 (Homo sapiens, UniProt O75116); assay: ROCK2 kinase inhibition assay (Caliper LABCHIP, FITC peptide substrate); type: biochemical; details: 5 μM ATP, 1.5 μM peptide substrate; value ranges
Method in brief: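 Rho kinase with 5 μM ATP and 1.5 μM FITC-AHA-AKRRRLSSLRA-OH peptide in HEPES pH 7.5, 20 mM MgCl2, 0.015% Brij-35, 4 mM DTT, DMSO <2%. EDTA stop; phospho and non-phospho peptide separated on LabChip. IC50 from dose-response fit.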

Sequence of ROCK2 (O75116 whole entry, species assumed): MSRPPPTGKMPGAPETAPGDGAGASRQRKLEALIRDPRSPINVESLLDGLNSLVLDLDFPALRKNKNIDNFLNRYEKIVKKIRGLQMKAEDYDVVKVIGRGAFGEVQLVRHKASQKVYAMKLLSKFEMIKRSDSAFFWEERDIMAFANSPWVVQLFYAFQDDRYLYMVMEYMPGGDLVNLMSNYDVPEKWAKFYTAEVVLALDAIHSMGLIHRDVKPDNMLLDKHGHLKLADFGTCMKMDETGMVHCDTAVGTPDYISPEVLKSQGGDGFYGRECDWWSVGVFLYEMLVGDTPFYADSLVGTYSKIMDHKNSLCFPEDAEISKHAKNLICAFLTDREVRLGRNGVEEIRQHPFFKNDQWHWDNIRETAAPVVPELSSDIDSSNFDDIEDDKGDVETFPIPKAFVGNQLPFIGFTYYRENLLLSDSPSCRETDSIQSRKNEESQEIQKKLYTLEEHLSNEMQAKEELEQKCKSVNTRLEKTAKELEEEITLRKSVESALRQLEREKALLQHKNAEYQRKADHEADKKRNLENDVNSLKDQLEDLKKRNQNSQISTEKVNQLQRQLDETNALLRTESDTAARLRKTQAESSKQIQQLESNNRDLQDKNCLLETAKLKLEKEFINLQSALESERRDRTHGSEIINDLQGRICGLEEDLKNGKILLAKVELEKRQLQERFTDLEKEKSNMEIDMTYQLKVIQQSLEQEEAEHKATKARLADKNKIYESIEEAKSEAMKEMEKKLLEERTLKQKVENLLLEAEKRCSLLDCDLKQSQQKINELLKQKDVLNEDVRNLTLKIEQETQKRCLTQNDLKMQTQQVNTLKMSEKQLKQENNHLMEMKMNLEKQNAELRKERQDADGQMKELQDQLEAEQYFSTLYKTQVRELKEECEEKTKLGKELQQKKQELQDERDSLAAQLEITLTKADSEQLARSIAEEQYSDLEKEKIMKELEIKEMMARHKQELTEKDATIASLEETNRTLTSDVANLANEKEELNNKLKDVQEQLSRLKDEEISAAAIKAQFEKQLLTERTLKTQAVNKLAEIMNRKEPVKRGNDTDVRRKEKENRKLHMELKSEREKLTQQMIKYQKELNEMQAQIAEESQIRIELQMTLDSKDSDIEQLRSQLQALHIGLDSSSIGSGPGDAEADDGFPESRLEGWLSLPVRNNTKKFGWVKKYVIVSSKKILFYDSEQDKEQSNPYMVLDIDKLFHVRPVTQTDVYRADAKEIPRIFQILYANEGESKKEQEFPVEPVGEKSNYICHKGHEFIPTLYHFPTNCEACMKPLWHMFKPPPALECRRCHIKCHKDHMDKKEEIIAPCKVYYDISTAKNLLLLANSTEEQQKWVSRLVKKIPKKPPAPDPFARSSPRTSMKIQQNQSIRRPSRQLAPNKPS

SMILES	IC50 [nM]
CCc1cc(N2CCN(Cc3cccc(F)c3)C2=O)ccc1-c1cn[nH]c1 [Example 24, 1-(3-Ethyl-4-(1H-pyrazol-4-yl)phenyl)-3-(3-fluorobenzyl)imidazolidin-2-one]	2.1 to 20
CCc1cc(N2CCN(Cc3ccccc3F)C2=O)ccc1-c1cn[nH]c1 [Example 25, 1-(3-Ethyl-4-(1H-pyrazol-4-yl)phenyl)-3-(2-fluorobenzyl)imidazolidin-2-one]	20.1 to 200
CCc1cc(N2CCN(Cc3ccccc3)C2=O)ccc1-c1cn[nH]c1 [Example 26, 1-Benzyl-3-(3-ethyl-4-(1H-pyrazol-4-yl)phenyl)imidazolidin-2-one]	20.1 to 200
CCc1cc(N2CCN(CCc3cccc(OC)c3)C2=O)ccc1-c1cn[nH]c1 [Example 27, 1-(3-Ethyl-4-(1H-pyrazol-4-yl)phenyl)-3-(3-methoxyphenethyl)imidazolidin-2-one, TFA]	200 to 2000
CCOC(=O)C1CN(Cc2ccccc2)C(=O)N1c1ccc(-c2cn[nH]c2)cc1 (centres unmarked) [Example 29, Ethyl 3-(4-(1H-pyrazol-4-yl)phenyl)-1-benzyl-2-oxoimidazolidine-4-carboxylate]	20.1 to 200
O=C1N(Cc2ccccc2)CC(CO)N1c1ccc(-c2cn[nH]c2)cc1 (centres unmarked) [Example 30, 3-(4-(1H-Pyrazol-4-yl)phenyl)-1-benzyl-4-(hydroxymethyl)imidazolidin-2-one]	20.1 to 200
COc1cc(N2CCN(Cc3ccccc3-c3cn[nH]c3)C2=O)ccc1-c1cn[nH]c1 [Example 31, 1-(2-(1H-Pyrazol-4-yl)benzyl)-3-(3-methoxy-4-(1H-pyrazol-4-yl)phenyl)imidazolidin-2-one, TFA]	20.1 to 200
O=C(O)C1CN(c2ccc(-c3cn[nH]c3)cc2)C(=O)N1Cc1cccc(F)c1 (centres unmarked) [Example 32, 1-(4-(1H-Pyrazol-4-yl)phenyl)-3-(3-fluorobenzyl)-2-oxoimidazolidine-4-carboxylic Acid]	200 to 2000
O=C(O)C1CN(Cc2cccc(F)c2)C(=O)N1c1ccc(-c2cn[nH]c2)cc1 (centres unmarked) [Example 33, 3-(4-(1H-Pyrazol-4-yl)phenyl)-1-(3-fluorobenzyl)-2-oxoimidazolidine-4-carboxylic Acid]	200 to 2000
COC(=O)C1CN(Cc2cccc(F)c2)C(=O)N1c1ccc(-c2cn[nH]c2)cc1 (centres unmarked) [Example 34, Methyl 3-(4-(1H-pyrazol-4-yl)phenyl)-1-(3-fluorobenzyl)-2-oxoimidazolidine-4-carboxylate]	20.1 to 200
COc1cccc(CN2CC(C(=O)O)N(c3ccc(-c4cn[nH]c4)cc3)C2=O)c1 (centres unmarked) [Example 35, 3-(4-(1H-Pyrazol-4-yl)phenyl)-1-(3-methoxybenzyl)-2-oxoimidazolidine-4-carboxylic Acid]	20.1 to 200
CCOC(=O)C1CN(Cc2cccc(OC)c2)C(=O)N1c1ccc(-c2cn[nH]c2)cc1 (centres unmarked) [Example 36, Ethyl 3-(4-(1H-pyrazol-4-yl)phenyl)-1-(3-methoxybenzyl)-2-oxoimidazolidine-4-carboxylate]	2.1 to 20
O=C1N(c2ccc(-c3cn[nH]c3)cc2)CC(CO)N1Cc1ccccc1 (centres unmarked) [Example 38, 1-(4-(1H-Pyrazol-4-yl)phenyl)-3-benzyl-4-(hydroxymethyl)imidazolidin-2-one]	2.1 to 20
O=C1N(Cc2cccc(F)c2)CC(CO)N1c1ccc(-c2cn[nH]c2)cc1 (centres unmarked) [Example 39, 3-(4-(1H-Pyrazol-4-yl)phenyl)-1-(3-fluorobenzyl)-4-(hydroxymethyl)imidazolidin-2-one]	2.1 to 20
COc1cccc(CN2C(=O)N(c3ccc(-c4cn[nH]c4)c(OC)c3)CC2CO)c1 (centres unmarked) [Example 40, 4-(Hydroxymethyl)-1-(3-methoxy-4-(1H-pyrazol-4-yl)phenyl)-3-(3-methoxybenzyl)imidazolidin-2-one]	< 2
COc1cc(N2CC(CO)N(Cc3ccccc3)C2=O)ccc1-c1cn[nH]c1 (centres unmarked) [Example 41, 3-Benzyl-4-(hydroxymethyl)-1-(3-methoxy-4-(1H-pyrazol-4-yl)phenyl)imidazolidin-2-one]	2.1 to 20

SMILES	IC50 [nM]
O=C1N(Cc2cccc(F)c2)CCN1c1ccc(-c2ccncc2F)cc1 [Example 49, 1-(3-fluorobenzyl)-3-(4-(3-fluoropyridin-4-yl)phenyl)imidazolidin-2-one]	20.1 to 200
COc1cccc(CN2CCN(c3ccc(-c4ccncc4F)cc3)C2=O)c1 [Example 50, 1-(4-(3-fluoropyridin-4-yl)phenyl)-3-(3-methoxybenzyl)imidazolidin-2-one]	20.1 to 200
O=C1N(Cc2cccc(F)c2)CCN1c1ccc(-c2ccnc(F)c2)cc1 [Example 51, 1-(3-fluorobenzyl)-3-(4-(2-fluoropyridin-4-yl)phenyl)imidazolidin-2-one]	200 to 2000
O=C1N(Cc2ccccc2)CCN1c1ccc(-c2ccncc2F)cc1 [Example 52, 1-benzyl-3-(4-(3-fluoropyridin-4-yl)phenyl)imidazolidin-2-one]	20.1 to 200
O=C1N(CCc2ccccc2)CCN1c1ccc(-c2ccncc2F)cc1 [Example 53, 1-(4-(3-fluoropyridin-4-yl)phenyl)-3-phenethylimidazolidin-2-one]	200 to 2000
COc1cccc(CN2CCN(c3ccc(-c4ccnc(F)c4)cc3)C2=O)c1 [Example 54, 1-(4-(2-fluoropyridin-4-yl)phenyl)-3-(3-methoxybenzyl)imidazolidin-2-one]	20.1 to 200
O=C1N(Cc2ccccc2)CCN1c1ccc(-c2ccncc2)cc1 [Example 55, 1-benzyl-3-(4-(pyridin-4-yl)phenyl)imidazolidin-2-one, TFA]	20.1 to 200
O=C1N(Cc2cccc(F)c2)CCN1c1ccc(-c2ccncc2)cc1 [Example 56, 1-(3-fluorobenzyl)-3-(4-(pyridin-4-yl)phenyl)imidazolidin-2-one, TFA]	20.1 to 200
O=C1N(Cc2ccccc2F)CCN1c1ccc(-c2ccncc2)cc1 [Example 57, 1-(2-fluorobenzyl)-3-(4-(pyridin-4-yl)phenyl)imidazolidin-2-one, TFA]	200 to 2000
COc1ccc(F)c(CN2CCN(c3ccc(-c4ccncc4)c(OC)c3)C2=O)c1 [Example 58, 1-(2-fluoro-5-methoxybenzyl)-3-(3-methoxy-4-(pyridin-4-yl)phenyl)imidazolidin-2-one, TFA]	200 to 2000
COc1cc(N2CCN(Cc3cccc(F)c3)C2=O)ccc1-c1ccncc1 [Example 59, 1-(3-fluorobenzyl)-3-(3-methoxy-4-(pyridin-4-yl)phenyl)imidazolidin-2-one, TFA]	20.1 to 200
O=C1N(Cc2ccccc2)CCN1c1ccc(-c2cnoc2)cc1 [Example 60, 1-benzyl-3-(4-(isoxazol-4-yl)phenyl)imidazolidin-2-one]	20.1 to 200
O=C1N(Cc2cccc(F)c2)CCN1c1ccc(-c2cnoc2)cc1 [Example 61, 1-(3-fluorobenzyl)-3-(4-(isoxazol-4-yl)phenyl)imidazolidin-2-one]	200 to 2000
COc1cccc(CN2CCN(c3ccc(-c4ccnc(N)c4)cc3)C2=O)c1 [Example 62, 1-(4-(2-Aminopyridin-4-yl)phenyl)-3-(3-methoxybenzyl)imidazolidin-2-one, TFA]	20.1 to 200
COc1cccc(CN2CCN(c3ccc(-c4ccnc(N)n4)cc3)C2=O)c1 [Example 63, 1-(4-(2-Aminopyrimidin-4-yl)phenyl)-3-(3-methoxybenzyl)imidazolidin-2-one]	20.1 to 200
COc1cccc(CN2CCN(c3ccc(-c4ncnc5[nH]ccc45)cc3)C2=O)c1 [Example 64, 1-(4-(7H-Pyrrolo[2,3-d]pyrimidin-4-yl)phenyl)-3-(3-methoxybenzyl)imidazolidin-2-one]	200 to 2000
